# Patent publication US9682026B2, “Oral care product and methods of use and manufacture thereof” (Colgate-Palmolive Company, priority 2008, dated 2017)
# Test system: S. sanguis
# Test: Ammonia production by S. sanguis at pH 4.0
# Assay type: cell-based
# Conditions: 5 millimolar amino acid, 0.1% sucrose, pH 4.0, 37° C., 30 minutes; mean of 6 trials
# Procedure: An overnight culture of S. sanguis was grown at 37° C. in trypticase soy broth (Becton Dickinson, Sparks, Md.). The culture was centrifuged at 5,000 rpm for 5 minutes at 1 milliliter at a time into preweighed tubes in order to accumulate approximately 5 milligrams of wet pellet weight. The pellet was then resuspended into 20 millimolar potassium phosphate buffer (J T Baker, Phillipsburg, N.J.), pH 4.0, to simulate a stressed environment for the bacterial cell where ammonia would be produced for survival. The final concentration was 5 milligram per milliliter. To this final concentration, a 5 millimolar final concentration of L-arginine, L-citrulline, or L-ornithine was added along with a 0.1% final concentration of sucrose (VWR, West Chester, Pa.). This mixture was then incubated at 37° C. in a shaking water bath for 30 minutes before ammonia production was determined.
# In order to analyze for ammonia, an Ammonia Assay kit was used from Diagnostic Chemicals Limited (Oxford, Conn.). The intended use of this specific kit is for the in vitro quantification of ammonia in plasma, but the procedure was modified in order to determine and quantify the ammonia production in plaque and/or bacteria.
row,Structure (SMILES),"Ammonia (ppm), Mean [ppm]"
1,"NCCC[C@H](N)C(=O)O [L-Ornithine, L-ornithine]",0.134
2,"NC(=O)NCCC[C@H](N)C(=O)O [L-Citrulline, L-citrulline]",0.951
3,"N=C(N)NCCC[C@H](N)C(=O)O [L-Arginine, L-arginine]",1.06
